Source: ChEMBL document CHEMBL2040793, “Thieno[3,2-c]pyran-4-one based novel small molecules: their synthesis, crystal structure analysis and in vitro evaluation as potential anticancer agents” (Bioorg Med Chem Lett, 2012)

How the values were obtained:
K562 [1] = test: Growth inhibition of human K562 cells at 10 uM after 24 hrs by MTT assay; type: functional; conditions: K562, 24 h, read-out: GI
MDA-MB-231 = test: Growth inhibition of human MDA-MB-231 cells at 10 uM after 24 hrs by MTT assay; type: functional; conditions: MDA-MB-231, 24 h, read-out: GI
HepG2 [2] = test: Growth inhibition of human HepG2 cells at 10 uM after 24 hrs by MTT assay; type: functional; conditions: HepG2, 24 h, read-out: GI
[3] = Growth inhibition of human HEK293 cells at 10 uM after 24 hrs by MTT assay; type: cell-based; conditions: read-out: GI
K562 [4] = test: Cytotoxicity against human K562 cells after 24 hrs by MTT assay; type: functional, cell-based; conditions: K562, 24 h
HepG2 [5] = test: Cytotoxicity against human HepG2 cells after 24 hrs by MTT assay; type: functional, cell-based; conditions: HepG2, 24 h
Saccharomyces cerevisiae = test: Inhibition of yeast SIRT2 assessed as derepression of Ura3 gene at 50 uM in presence of 5-fluoroorotic acid
HepG2 [6] = test: Ratio of doxorubicin IC50 to compound IC50 for human HepG2 cells; type: functional

Work on `O=c1oc(-c2ccccc2)c(I)c2sc3c(c12)CCCC3` yielded an inhibition of growth at 10 µM (K562 [1]) of 38.1%, an inhibition of growth at 10 µM (MDA-MB-231) of 22.7% and an inhibition of growth at 10 µM (HepG2 [2]) of 0%. For the same molecule, the inhibition at 24 h, 10 µM [3] was 0.6%.
Work on `O=c1oc(-c2ccccc2)c(-c2ccc(O)cc2)c2sc3c(c12)CCCC3` yielded an inhibition of growth at 10 µM (K562 [1]) of 9.85%, an inhibition of growth at 10 µM (MDA-MB-231) of 22.9% and an inhibition of growth at 10 µM (HepG2 [2]) of 23%. The inhibition at 24 h, 10 µM [3] was 0.5%.
With `Cc1ccc(-c2oc(=O)c3c4c(sc3c2I)CCCC4)cc1` the inhibition of growth at 10 µM (K562 [1]) was 64.2%, the inhibition of growth at 10 µM (MDA-MB-231) was 32.5% and the inhibition of growth at 10 µM (HepG2 [2]) was 68.2%. The inhibition at 24 h, 10 µM [3] was 0%, the IC50 (K562 [4]) was 2330 nM and the IC50 (HepG2 [5]) was 2380 nM. The inhibition (Saccharomyces cerevisiae) was 30% and the “Ratio IC50” value (HepG2 [6]) was over 2.
Work on `CCCCC#Cc1c(-c2ccccc2)oc(=O)c2c3c(sc12)CCCCC3` yielded an inhibition of growth at 10 µM (K562 [1]) of 66.4%, an inhibition of growth at 10 µM (MDA-MB-231) of 25.2% and an inhibition of growth at 10 µM (HepG2 [2]) of 24.1%. It also gave an inhibition at 24 h, 10 µM [3] of 3.2%, an IC50 (K562 [4]) of 2280 nM and an inhibition (Saccharomyces cerevisiae) of 30%.
`O=c1oc(-c2ccccc2)c(I)c2sc3c(c12)CCCCC3` gave an inhibition of growth at 10 µM (K562 [1]) of 30.3%, an inhibition of growth at 10 µM (MDA-MB-231) of 40.1% and an inhibition of growth at 10 µM (HepG2 [2]) of 12%. For the same molecule, the inhibition at 24 h, 10 µM [3] was 0.23%.
For `CC(C)(C)OC(=O)N1CCc2c(sc3c(I)c(-c4ccccc4)oc(=O)c23)C1`, the inhibition of growth at 10 µM (K562 [1]) was 8.34%, the inhibition of growth at 10 µM (MDA-MB-231) was 27.5% and the inhibition of growth at 10 µM (HepG2 [2]) was 15.5%. For the same molecule, the inhibition at 24 h, 10 µM [3] was 9.03%.
With `O=c1oc(-c2ccccc2)c(-c2ccccc2)c2sc3c(c12)CCC3` the inhibition of growth at 10 µM (K562 [1]) was 26.7%, the inhibition of growth at 10 µM (MDA-MB-231) was 12.4% and the inhibition of growth at 10 µM (HepG2 [2]) was 13.4%. The inhibition at 24 h, 10 µM [3] was 4%.
In the case of `CCOC(=O)/C=C/c1c(-c2ccccc2)oc(=O)c2c3c(sc12)CCCCC3`, the inhibition of growth at 10 µM (K562 [1]) is reported as 27.4%, the inhibition of growth at 10 µM (MDA-MB-231) is reported as 42.6% and the inhibition of growth at 10 µM (HepG2 [2]) is reported as 12%. For the same molecule, the inhibition at 24 h, 10 µM [3] was 1.11%.
In the case of `CC(C)(O)C#Cc1c(-c2ccccc2)oc(=O)c2c3c(sc12)CCCCC3`, the inhibition of growth at 10 µM (K562 [1]) is reported as 9.32%, the inhibition of growth at 10 µM (MDA-MB-231) is reported as 21.6% and the inhibition of growth at 10 µM (HepG2 [2]) is reported as 25%. It also gave an inhibition at 24 h, 10 µM [3] of 4.2%.
`O=c1oc(-c2ccccc2)c(-c2ccccc2)c2sc3c(c12)CCCCC3` showed an inhibition of growth at 10 µM (K562 [1]) of 24%, an inhibition of growth at 10 µM (MDA-MB-231) of 7.42% and an inhibition of growth at 10 µM (HepG2 [2]) of 35.9%. For the same molecule, the inhibition at 24 h, 10 µM [3] was 0.01%.
`Cc1ccc(NC(=O)c2ccc(CN3CCN(C)CC3)cc2)cc1Nc1nccc(-c2cccnc2)n1` [IMATINIB] showed an IC50 (K562 [4]) of 100 nM.
For `O=c1oc(-c2ccccc2)c(C#Cc2ccccc2)c2sc3c(c12)CCCCC3`, the inhibition of growth at 10 µM (K562 [1]) was 13.9%, the inhibition of growth at 10 µM (MDA-MB-231) was 34.7% and the inhibition of growth at 10 µM (HepG2 [2]) was 20.1%. It also gave an inhibition at 24 h, 10 µM [3] of 1.7%.
Work on `CCCCCC#Cc1c(-c2ccccc2)oc(=O)c2c3c(sc12)CCCCC3` yielded an inhibition of growth at 10 µM (K562 [1]) of 12.3%, an inhibition of growth at 10 µM (MDA-MB-231) of 41.9% and an inhibition of growth at 10 µM (HepG2 [2]) of 24.8%. For the same molecule, the inhibition at 24 h, 10 µM [3] was 0.44%.
